According to PubChem BioAssay (NCI):
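Test compounds were applied to cells in 96-well plates for 48 hours at 5 doses. Definition used: TGI = concentration required for complete inhibition of growth.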

What was measured:
Assay in all cases: NCI tumour cell line growth inhibition, 48 h
786-0 renal = test system: 786-0 renal
A549 NSCLC = test system: A549 NSCLC
ACHN renal = test system: ACHN renal
BT-549 breast = test system: BT-549 breast
CAKI-1 renal = test system: CAKI-1 renal
CCRF-CEM leukemia = test system: CCRF-CEM leukemia
COLO 205 colon = test system: COLO 205 colon
DU-145 prostate = test system: DU-145 prostate
EKVX NSCLC = test system: EKVX NSCLC
HCC-2998 colon = test system: HCC-2998 colon
HCT-116 colon = test system: HCT-116 colon
HCT-15 colon = test system: HCT-15 colon
HL-60(TB) leukemia = test system: HL-60(TB) leukemia
HOP-62 NSCLC = test system: HOP-62 NSCLC
HT29 colon = test system: HT29 colon
K-562 leukemia = test system: K-562 leukemia
KM12 colon = test system: KM12 colon
LOX IMVI melanoma = test system: LOX IMVI melanoma
M14 melanoma = test system: M14 melanoma
MALME-3M melanoma = test system: MALME-3M melanoma
MCF7 breast = test system: MCF7 breast
MDA-MB-435 = test system: MDA-MB-435
MDA-N = test system: MDA-N
MOLT-4 leukemia = test system: MOLT-4 leukemia
NCI-H226 lung = test system: NCI-H226 lung
NCI-H23 lung = test system: NCI-H23 lung
NCI-H522 lung = test system: NCI-H522 lung
NCI/ADR-RES ovarian = test system: NCI/ADR-RES ovarian
OVCAR-3 ovarian = test system: OVCAR-3 ovarian
OVCAR-4 ovarian = test system: OVCAR-4 ovarian
OVCAR-5 ovarian = test system: OVCAR-5 ovarian
OVCAR-8 ovarian = test system: OVCAR-8 ovarian
PC-3 prostate = test system: PC-3 prostate
RPMI-8226 leukemia = test system: RPMI-8226 leukemia
RXF 393 renal = test system: RXF 393 renal
SF-268 CNS = test system: SF-268 CNS
SF-295 CNS = test system: SF-295 CNS
SF-539 CNS = test system: SF-539 CNS
SK-MEL-2 melanoma = test system: SK-MEL-2 melanoma
SK-MEL-28 melanoma = test system: SK-MEL-28 melanoma
SK-MEL-5 melanoma = test system: SK-MEL-5 melanoma
SK-OV-3 ovarian = test system: SK-OV-3 ovarian
SN12C renal = test system: SN12C renal
SNB-19 CNS = test system: SNB-19 CNS
SNB-75 CNS = test system: SNB-75 CNS
SR leukemia = test system: SR leukemia
SW-620 colon = test system: SW-620 colon
T-47D breast = test system: T-47D breast
TK-10 renal = test system: TK-10 renal
U251 CNS = test system: U251 CNS
UACC-257 melanoma = test system: UACC-257 melanoma
UACC-62 melanoma = test system: UACC-62 melanoma
UO-31 renal = test system: UO-31 renal

Measured: TGI

CCOC(=O)CN1C(=O)C(=O)N(c2ccc(OC)c3ccccc23)C1=O
> 100 µM: 786-0 renal | A549 NSCLC | ACHN renal | BT-549 breast | CAKI-1 renal | CCRF-CEM leukemia | COLO 205 colon | DU-145 prostate | EKVX NSCLC | HCC-2998 colon | HCT-116 colon | HCT-15 colon | HL-60(TB) leukemia | HOP-62 NSCLC | HT29 colon | K-562 leukemia | KM12 colon | LOX IMVI melanoma | M14 melanoma | MALME-3M melanoma | MCF7 breast | MDA-MB-435 | MDA-N | MOLT-4 leukemia | NCI-H226 lung | NCI-H23 lung | NCI-H522 lung | NCI/ADR-RES ovarian | OVCAR-3 ovarian | OVCAR-4 ovarian | OVCAR-5 ovarian | OVCAR-8 ovarian | PC-3 prostate | RPMI-8226 leukemia | RXF 393 renal | SF-268 CNS | SF-295 CNS | SF-539 CNS | SK-MEL-2 melanoma | SK-MEL-28 melanoma | SK-MEL-5 melanoma | SK-OV-3 ovarian | SN12C renal | SNB-19 CNS | SNB-75 CNS | SR leukemia | SW-620 colon | T-47D breast | TK-10 renal | U251 CNS | UACC-257 melanoma | UACC-62 melanoma | UO-31 renal
